According to PMC7556816, “Structural and mechanistic analysis of ATPase inhibitors targeting mycobacterial DNA gyrase” (Journal of Antimicrobial Chemotherapy, 2020):

Tested on: M. tuberculosis gyrase, GyrB Arg141 mutants
Format: biochemical, Mycobacterium tuberculosis

| Compound | inhibition of supercoiling of Arg141 mutant gyrase |
| --- | --- |
| CNc1cc(F)cc2c1[nH]c1nc(Oc3cnc(C)nc3)nc(N3C[C@@H]4[C@@H](N)[C@@H]4C3)c12 [Redx03863] | susceptible to inhibition |
| CO[C@@H]1[C@@H](OC(N)=O)[C@@H](O)[C@H](Oc2ccc3c(O)c(NC(=O)c4ccc(O)c(CC=C(C)C)c4)c(=O)oc3c2C)OC1(C)C [novobiocin, reference compound] | at least partially inhibited |
